Results published in PubChem BioAssay (NCI).
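Assay format: 96-well plates, 48-hour exposure. Abbreviation: GI50, concentration required for 50% inhibition of growth. The concentration for full growth arrest is given as TGI.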

Legend:
Experiment in all cases: NCI tumour cell line growth inhibition, 48 h
U251 CNS = system: U251 CNS
786-0 renal = system: 786-0 renal
HL-60(TB) leukemia = system: HL-60(TB) leukemia
ACHN renal = system: ACHN renal
HCC-2998 colon = system: HCC-2998 colon
SNB-75 CNS = system: SNB-75 CNS
OVCAR-4 ovarian = system: OVCAR-4 ovarian
CAKI-1 renal = system: CAKI-1 renal
RXF 393 renal = system: RXF 393 renal
UACC-62 melanoma = system: UACC-62 melanoma
M14 melanoma = system: M14 melanoma
A498 renal = system: A498 renal
SK-MEL-28 melanoma = system: SK-MEL-28 melanoma
MOLT-4 leukemia = system: MOLT-4 leukemia
HCT-15 colon = system: HCT-15 colon
MCF7 breast = system: MCF7 breast
SF-268 CNS = system: SF-268 CNS
UACC-257 melanoma = system: UACC-257 melanoma
SK-OV-3 ovarian = system: SK-OV-3 ovarian
MALME-3M melanoma = system: MALME-3M melanoma
COLO 205 colon = system: COLO 205 colon
NCI-H460 lung = system: NCI-H460 lung
HS 578T breast = system: HS 578T breast
OVCAR-8 ovarian = system: OVCAR-8 ovarian
DU-145 prostate = system: DU-145 prostate
TK-10 renal = system: TK-10 renal
HOP-62 NSCLC = system: HOP-62 NSCLC
A549 NSCLC = system: A549 NSCLC
SW-620 colon = system: SW-620 colon
EKVX NSCLC = system: EKVX NSCLC
SN12C renal = system: SN12C renal
IGROV1 ovarian = system: IGROV1 ovarian
SF-539 CNS = system: SF-539 CNS
SK-MEL-2 melanoma = system: SK-MEL-2 melanoma
OVCAR-5 ovarian = system: OVCAR-5 ovarian
NCI-H522 lung = system: NCI-H522 lung
HCT-116 colon = system: HCT-116 colon
PC-3 prostate = system: PC-3 prostate
NCI-H226 lung = system: NCI-H226 lung
MDA-MB-435 = system: MDA-MB-435
LOX IMVI melanoma = system: LOX IMVI melanoma
RPMI-8226 leukemia = system: RPMI-8226 leukemia
SNB-19 CNS = system: SNB-19 CNS
MDA-MB-231 breast = system: MDA-MB-231 breast
SF-295 CNS = system: SF-295 CNS
UO-31 renal = system: UO-31 renal
BT-549 breast = system: BT-549 breast
NCI-H23 lung = system: NCI-H23 lung
KM12 colon = system: KM12 colon
T-47D breast = system: T-47D breast
CCRF-CEM leukemia = system: CCRF-CEM leukemia
SR leukemia = system: SR leukemia
NCI/ADR-RES ovarian = system: NCI/ADR-RES ovarian
SK-MEL-5 melanoma = system: SK-MEL-5 melanoma
HOP-92 NSCLC = system: HOP-92 NSCLC
K-562 leukemia = system: K-562 leukemia
HT29 colon = system: HT29 colon

`CN1CCN(Cc2ccc(NC(=O)c3cncc(C#Cc4cnc5ccc(OCC(C)(C)O)nn45)c3)cc2C(F)(F)F)CC1` showed a GI50 (U251 CNS) of 0.329 µM, a TGI (U251 CNS) of 1.12 µM and a GI50 (786-0 renal) of 0.323 µM. The TGI (786-0 renal) was 0.96 µM, the GI50 (HL-60(TB) leukemia) was 0.264 µM and the TGI (HL-60(TB) leukemia) was 0.873 µM. The GI50 (ACHN renal) was 0.295 µM, the TGI (ACHN renal) was 1.06 µM and the GI50 (HCC-2998 colon) was 0.334 µM. It also gave a TGI (HCC-2998 colon) of 1.02 µM, a GI50 (SNB-75 CNS) of 0.21 µM and a TGI (SNB-75 CNS) of 0.572 µM. It also gave a GI50 (OVCAR-4 ovarian) of 0.217 µM, a TGI (OVCAR-4 ovarian) of 1.04 µM and a GI50 (CAKI-1 renal) of 0.183 µM. The TGI (CAKI-1 renal) was 0.528 µM, the GI50 (RXF 393 renal) was 0.181 µM and the TGI (RXF 393 renal) was 0.392 µM. The GI50 (UACC-62 melanoma) was 0.199 µM, the TGI (UACC-62 melanoma) was 0.843 µM and the GI50 (M14 melanoma) was 0.139 µM. It also gave a TGI (M14 melanoma) of 0.305 µM, a GI50 (A498 renal) of 0.199 µM and a TGI (A498 renal) of 0.395 µM. For the same compound, the GI50 (SK-MEL-28 melanoma) was 0.237 µM, the TGI (SK-MEL-28 melanoma) was 0.726 µM and the GI50 (MOLT-4 leukemia) was 0.269 µM. The TGI (MOLT-4 leukemia) was 1.41 µM, the GI50 (HCT-15 colon) was 0.287 µM and the TGI (HCT-15 colon) was 0.929 µM. It also gave a GI50 (MCF7 breast) of 0.146 µM, a TGI (MCF7 breast) of 0.897 µM and a GI50 (SF-268 CNS) of 0.18 µM. For the same compound, the TGI (SF-268 CNS) was 0.448 µM, the GI50 (UACC-257 melanoma) was 0.318 µM and the TGI (UACC-257 melanoma) was 1.2 µM. The GI50 (SK-OV-3 ovarian) was 0.378 µM, the TGI (SK-OV-3 ovarian) was 1.16 µM and the GI50 (MALME-3M melanoma) was 0.127 µM. For the same compound, the TGI (MALME-3M melanoma) was 0.37 µM, the GI50 (COLO 205 colon) was 0.178 µM and the TGI (COLO 205 colon) was 0.349 µM. For the same compound, the GI50 (NCI-H460 lung) was 0.297 µM, the TGI (NCI-H460 lung) was 0.851 µM and the GI50 (HS 578T breast) was 0.156 µM. For the same compound, the TGI (HS 578T breast) was 0.578 µM, the GI50 (OVCAR-8 ovarian) was 0.304 µM and the TGI (OVCAR-8 ovarian) was 1.05 µM. The GI50 (DU-145 prostate) was 0.26 µM, the TGI (DU-145 prostate) was 0.786 µM and the GI50 (TK-10 renal) was 0.226 µM. It also gave a TGI (TK-10 renal) of 0.55 µM, a GI50 (HOP-62 NSCLC) of 0.23 µM and a TGI (HOP-62 NSCLC) of 0.667 µM. The GI50 (A549 NSCLC) was 0.317 µM, the TGI (A549 NSCLC) was 1.09 µM and the GI50 (SW-620 colon) was 0.202 µM. For the same compound, the TGI (SW-620 colon) was 0.585 µM, the GI50 (EKVX NSCLC) was 0.257 µM and the TGI (EKVX NSCLC) was 0.997 µM. The GI50 (SN12C renal) was 0.153 µM, the TGI (SN12C renal) was 0.864 µM and the GI50 (IGROV1 ovarian) was 0.167 µM. For the same compound, the TGI (IGROV1 ovarian) was 1.06 µM, the GI50 (SF-539 CNS) was 0.117 µM and the TGI (SF-539 CNS) was 0.403 µM. For the same compound, the GI50 (SK-MEL-2 melanoma) was 0.177 µM, the TGI (SK-MEL-2 melanoma) was 0.349 µM and the GI50 (OVCAR-5 ovarian) was 0.295 µM. It also gave a TGI (OVCAR-5 ovarian) of 1.2 µM, a GI50 (NCI-H522 lung) of 0.179 µM and a TGI (NCI-H522 lung) of 0.37 µM. It also gave a GI50 (HCT-116 colon) of 0.17 µM, a TGI (HCT-116 colon) of 0.889 µM and a GI50 (PC-3 prostate) of 0.332 µM. It also gave a TGI (PC-3 prostate) of 1.75 µM, a GI50 (NCI-H226 lung) of 0.148 µM and a TGI (NCI-H226 lung) of 1.34 µM. For the same compound, the GI50 (MDA-MB-435) was 0.207 µM, the TGI (MDA-MB-435) was 0.698 µM and the GI50 (LOX IMVI melanoma) was 0.146 µM. It also gave a TGI (LOX IMVI melanoma) of 0.3 µM, a GI50 (RPMI-8226 leukemia) of 0.344 µM and a TGI (RPMI-8226 leukemia) of 1.38 µM. It also gave a GI50 (SNB-19 CNS) of 0.356 µM, a TGI (SNB-19 CNS) of 1.36 µM and a GI50 (MDA-MB-231 breast) of 0.114 µM. It also gave a TGI (MDA-MB-231 breast) of 0.548 µM, a GI50 (SF-295 CNS) of 0.726 µM and a TGI (SF-295 CNS) of 2.06 µM. The GI50 (UO-31 renal) was 0.339 µM, the TGI (UO-31 renal) was 1.06 µM and the GI50 (BT-549 breast) was 0.386 µM. It also gave a TGI (BT-549 breast) of 1.22 µM, a GI50 (NCI-H23 lung) of 0.185 µM and a TGI (NCI-H23 lung) of 0.478 µM. The TGI (KM12 colon) was 0.83 µM, the GI50 (T-47D breast) was 0.369 µM and the TGI (T-47D breast) was 1.91 µM. For the same compound, the GI50 (CCRF-CEM leukemia) was 0.336 µM, the TGI (CCRF-CEM leukemia) was 12.5 µM and the GI50 (SR leukemia) was 0.249 µM. It also gave a TGI (SR leukemia) of 0.852 µM, a GI50 (NCI/ADR-RES ovarian) of 1.64 µM and a TGI (NCI/ADR-RES ovarian) of 4.68 µM. For the same compound, the GI50 (SK-MEL-5 melanoma) was 0.775 µM, the TGI (SK-MEL-5 melanoma) was 2.05 µM and the GI50 (HOP-92 NSCLC) was 0.0385 µM. For the same compound, the TGI (HOP-92 NSCLC) was 0.225 µM, the TGI (K-562 leukemia) was 1.85 µM and the GI50 (HT29 colon) was 0.203 µM. The TGI (HT29 colon) was 0.91 µM.
